Data reported in US20260176284A1, “Compounds with Anti-KRAS Mutated Tumor Activity” (Trasveda Ltd., priority 2022, published 2026).

System: KRAS G12D mutated AGS human gastric adenocarcinoma cells
Assay: Proliferation inhibition of KRAS G12D mutant AGS cells (CellTiter-Glo, 3 days; IC50 and single-point inhibition rate at 1 μM)
Assay type: cell-based
Settings: 72 h, 3 days incubation, max concentration 10 μM
Description: This experiment assessed and validated the proliferation inhibitory activity of some compounds of the present invention against KRAS G12D mutant AGS cells.
Incubate at 37° C., 5% CO2, 95% humidity.
The following materials, instruments, and reagents were used in this experiment: Fetal Bovine Serum FBS (GIBCO, Cat #10099-141); CellTiter-Glo® Luminescent Cell Viability Assay (Promega, Cat #G7572); 96-well clear flat-bottom black-wall plate (Corning®, Cat #3603); SpectraMax multimode microplate reader (MD, 2104-0010A); CO2 Incubator (Thermo Scientific, Model 3100 Series); Biosafety cabinet (Thermo Scientific, Model 1300 Series A2); Inverted microscope (Olympus, CKX41SF); AGS cell line was purchased from Nanjing Kebai Biotechnology Co., Ltd., under the lot number CBP60476.
Cell culture and inoculation: The cells in the logarithmic growth phase were harvested, and cell counting was performed using a platelet counter. The cell viability was detected by Trypan Blue exclusion method to ensure that the cell viability was above 90%. The cell concentration was adjusted. Then, 90 μL of the cell suspension was added to each well of a 96-well plate respectively, and the cells in the 96-well plate were cultured at 37° C. and 5% CO2.
Drug dilution and addition: a) For the preparation of drugs for single-point inhibition rate determination: A 10-fold concentrated drug solution was prepared. 10 μL of the drug solution was added to each well of the 96-well plate inoculated with cells to make the working concentration 1 μM, and three replicate wells were set for each drug concentration; b) For the preparation of drugs for IC50 determination: A 10-fold concentrated drug solution was prepared. 10 μL of the drug solution was added to each well of the 96-well plate inoculated with cells to make the maximum working concentration 10 μM, with a 3.16× dilution and a total of 9 concentrations. Three replicate wells were set for each drug concentration. The cells in the 96-well plate with the added drugs were incubated at 37° C. and 5% CO2 for another 3 days, and then the CTG assay was performed.
The CTG reagent was thawed, and the cell plate was equilibrated to room temperature for 30 minutes. An equal volume of CTG solution was added to each well, and the plate was shaken on an orbital shaker for 5 minutes to lyse the cells. The cell plate was placed at room temperature for 20 minutes to stabilize the luminescence signal, and then the luminescence value was read.
The data were analyzed using GraphPad Prism 7.0 software. The data were fitted by nonlinear S-curve regression to obtain the dose-response curve, and the IC50 value was calculated accordingly.

Point of comparison: `C#Cc1c(F)ccc2cc(O)cc(-c3c(F)cc4c(N5CC6CCC(C5)N6)nc(OCC5(C)CCCN(CCF)C5)nc4c3F)c12` (atropisomer, axis not shown; (Ra)) [Example 4, (Ra)-4-(4-((1R,5S)-3,8-diazabicyclo[3.2.1]octan-3-yl)-6,8-difluoro-2-(1-(2-fluoroethyl)-3-methylpiperidin-3-yl)methoxy)quinazolin-7-yl)-5-ethynyl-6-fluoronaphthalen-2-ol·diformate], IC50 88 nM. Against it:
- C#Cc1c(F)ccc2cc(O)cc(-c3c(F)cc4c(N5CC6CCC(C5)N6)nc(OCC5(C)CCCN(C)C5)nc4c3F)c12 (atropisomer, axis not shown; (Ra)) [Example 2, (Ra)-4-(4-((1R,5S)-3,8-diazabicyclo[3.2.1]octan-3-yl)-2-((1,3-dimethylpiperidin-3-yl)methoxy)-6,8-difluoroquinazolin-7-yl)-5-ethynyl-6-fluoronaphthalen-2-ol·dicarboxylate] — 1.8-fold lower, 50 nM
- C#Cc1c(F)ccc2cc(O)cc(-c3c(F)cc4c(N5CC6CCC(C5)N6)nc(OCC5(C)CCCN(CCOC)C5)nc4c3F)c12 (atropisomer, axis not shown; (Ra)) [Example 3, (Ra)-4-(4-((1R,5S)-3,8-diazabicyclo[3.2.1]octan-3-yl)-6,8-difluoro-2-(1-(2-methoxyethyl)-3-methylpiperidin-3-yl)methoxy)quinazolin-7-yl)-5-ethynyl-6-fluoronaphthalen-2-ol·formate] — 1.8-fold higher, 158 nM
- C#Cc1c(F)ccc2cc(O)cc(-c3c(F)cc4c(N5CC6CCC(C5)N6)nc(OCC5(C)CN(C)CCC5(F)F)nc4c3F)c12 (atropisomer, axis not shown; (Ra)) [Example 6, (Ra)-4-(4-((1R,5S)-3,8-diazabicyclo[3.2.1]octan-3-yl)-2-((4,4-difluoro-1,3-dimethylpiperidin-3-yl)methoxy)-6,8-difluoroquinazolin-7-yl)-5-ethynyl-6-fluoronaphthalen-2-ol] — 1.6-fold lower, 55 nM
- C#Cc1c(F)ccc2cc(O)cc(-c3c(F)cc4c(N5CC6CCC(C5)N6)nc(OCC5(C)CCCCN(CCOC)C5)nc4c3F)c12 [Example 8, 4-(4-((1R,5S)-3,8-diazabicyclo[3.2.1]octane-3-yl)-6,8-difluoro-2-((1-(2-methoxyethyl)-3-methylazepan-3-yl)methoxy)quinazolin-7-yl)-5-ethynyl-6-fluoronaphthalen-2-ol·triformate] — 2.9-fold higher, 251 nM
- C#Cc1c(F)ccc2cc(O)cc(-c3c(F)cc4c(N5CC6CCC(C5)N6)nc(OCC5(C)CN(C)CCC5OC)nc4c3F)c12 (atropisomer, axis not shown; (Ra)) [Example 5, (Ra)-4-(4-(((1R,5S)-3,8-diazabicyclo[3.2.1]octan-3-yl)-6,8-difluoro-2-(4-methoxy-1,3-dimethylpiperidin-3-yl)methoxy)quinazolin-7-yl)-5-ethynyl-6-fluoronaphthalen-2-ol·diformate] — 2-fold higher, 175 nM
- C#Cc1c(F)ccc2cc(O)cc(-c3c(F)cc4c(N5CC6CCC(C5)N6)nc(OCC5(F)CCCN(C)C5)nc4c3F)c12 (atropisomer, axis not shown; (Ra)) [Example 1, (Ra)-4-(4-((1R,5S)-3,8-diazabicyclo[3.2.1]octan-3-yl)-6,8-difluoro-2-(3-fluoro-1-methylpiperidin-3-yl)methoxy)quinazolin-7-yl)-5-ethynyl-6-fluoronaphthalen-2-ol·diformate] — within 1.5-fold, 94 nM
- C#Cc1c(F)ccc2cc(O)cc(-c3c(F)cc4c(N5CC6CCC(C5)N6)nc(OCC56CC5CCN(C)C6)nc4c3F)c12 (atropisomer, axis not shown; (Ra)) [Example 9, (Ra)-4-(4-((1R,5S)-3,8-diazabicyclo[3.2.1]octan-3-yl)-6,8-difluoro-2-((3-methyl-3-azabicyclo[4.1.0]heptan-1-yl)methoxy)quinazolin-7-yl)-5-ethynyl-6-fluoronaphthalen-2-ol·diformate] — 3.9-fold higher, 347 nM
- C#Cc1c(F)ccc2cc(O)cc(-c3c(F)cc4c(N5CC6CCC(C5)N6)nc(OCC5COCCN(C)C5)nc4c3F)c12 (stereo not drawn) [Example 7] — 8.9-fold higher, 781 nM

System: KRAS G12D mutated AGS human gastric adenocarcinoma cells
Assay: Proliferation inhibition of KRAS G12D mutant AGS cells, another experiment with similar protocol (includes MRTX1133)
Assay type: cell-based
Settings: not given
Description: In another experiment, using a protocol similar to the one described above, the inhibitory activity of some representative compounds of the present invention against KRAS G12D mutated AGS human gastric adenocarcinoma cells was determined.
The synthesis of compound MRTX1133 was performed according to the method described in J. Med. Chem. 2022, 65, 4, 3123-3133.

`CN1CC[C@H](C(F)F)[C@](C)(COc2nc(N3C[C@H]4CC[C@@H](C3)N4)c3cc(Cl)c(-c4cccc5sc(N)c(C#N)c45)c(F)c3n2)C1` [Example 312-1, (4-((1R,5S)-3,8-diazabicyclo[3.2.1]octan-3-yl)-6-chloro-2-(((3S,4S)-4-(difluoromethyl)-1,3-dimethylpiperidin-3-yl)methoxy)-8-fluoroquinazolin-7-yl)-2-aminobenzo[b]thiophene-3-carbonitrile] showed an IC50 of 11 nM.

Same assay, conditions: Homo sapiens

Point of comparison: `CN1CC[C@H](C(F)F)[C@](C)(COc2nc(N3C[C@H]4CC[C@@H](C3)N4)c3cc(Cl)c(-c4cccc5sc(N)c(C#N)c45)c(F)c3n2)C1` [Example 312, 4-(4-((1R,5S)-3,8-diazabicyclo[3.2.1]octan-3-yl)-6-chloro-2-(((3S,4S)-4-(difluoromethyl)-1,3-dimethylpiperidin-3-yl)methoxy)-8-fluoroquinazolin-7-yl)-2-aminobenzo[b]thiophen-3-nitrile], IC50 25 nM. Against it:
- C#Cc1c(F)ccc2cc(O)cc(-c3nc(OC)c4c(N5C[C@H]6CC[C@@H](C5)N6)nc(OC[C@]5(C)CN(C)CC[C@@H]5F)nc4c3F)c12 [Example 262, 4-(4-((1R,5S)-3,8-diazabicyclo[3.2.1]octan-3-yl)-8-fluoro-2-(((3S,4S)-4-fluoro-1,3-dimethylpiperidin-3-yl)methoxy)-5-methoxypyrido[4,3-d]pyrimidin-7-yl)-5-ethynyl-6-fluoronaphthalen-2-ol] — 1.7-fold lower, 15 nM
- CN1CC/C(=C\F)[C@](C)(COc2nc(N3CC4CCC(C3)N4)c3cc(Cl)c(-c4cccc5sc(N)c(C#N)c45)c(F)c3n2)C1 (single isomer, unassigned) [Example 313-2] — within 1.5-fold, 17 nM
- CN1CC[C@H](CF)[C@](C)(COc2nc(N3CC4CCC(C3)N4)c3cc(F)c(-c4c(C#N)c(N)cc(Cl)c4C(F)(F)F)c(F)c3n2)C1 (single isomer, unassigned) [Example 122-1, (Ra or Sa)-2-(4-((1R,5S)-3,8-diazabicyclo[3.2.1]octan-3-yl)-6,8-difluoro-2-(((3S,4S)-4-(fluoromethyl)-1,3-dimethylpiperidin-3-yl)methoxy)quinazolin-7-yl)-6-amino-4-chloro-3-(trifluoromethyl) benzonitrile·trifluoroacetate] — within 1.5-fold, 34 nM
- C#Cc1c(F)ccc2cc(O)cc(-c3ncc4c(N5CC6CCC(C5)N6)nc(OC[C@]5(C)CN(C)CC[C@@H]5CF)nc4c3F)c12 [Example 71-2] — 3.1-fold lower, 8 nM
- C#Cc1c(F)ccc2cc(O)cc(-c3ncc4c(N5CC6CCC(C5)N6)nc(OC[C@]5(C)CN(C)CC[C@@H]5F)nc4c3F)c12 [Example 67-1] — 3.1-fold higher, 77 nM
- CN1CC[C@H](C(F)F)[C@](C)(COc2nc(N3C[C@H]4CC[C@@H](C3)N4)c3cc(F)c(-c4cccc5sc(N)c(C#N)c45)c(F)c3n2)C1 [Example 190, 4-(4-((1R,5S)-3,8-diazabicyclo[3.2.1]octan-3-yl)-2-(((3S,4S)-4-(difluoromethyl)-1,3-dimethylpiperidin-3-yl)methoxy)-6,8-difluoroquinazolin-7-yl)-2-aminobenzo[b]thiophene-3-nitrile] — 1.9-fold higher, 47 nM
- C#Cc1c(F)ccc2cc(O)cc(-c3nc(OC)c4c(N5C[C@H]6CC[C@@H](C5)N6)nc(OC[C@]5(C)CN(C)CC[C@@H]5CF)nc4c3F)c12 [Example 260, 4-(4-((1R,5S)-3,8-diazabicyclo[3.2.1]octan-3-yl)-8-fluoro-2-(((3S,4S)-4-(fluoromethyl)-1,3-dimethylpiperidin-3-yl)methoxy)-5-methoxypyrido[4,3-d]pyrimidin-7-yl)-5-ethynyl-6-fluoronaphthalen-2-ol] — 8.3-fold lower, 3 nM
